Assay [1] can be described thus: Inhibition of human sPLA2 expressed in Escherichia coli assessed as release of [14C]oleate.
A further assay concerns UT7. Description: Induction of cell proliferation in human UT7 cells at 10 uM after 42 hrs by thymidine incorporation assay. Format: functional. (In general: Incorporation of labelled thymidine or its analogues reports DNA synthesis.)
Assay [2] deals with Sodium-dependent dopamine transporter (Homo sapiens, UniProt Q01959). Description: Inhibition of recombinant human DA transporter assessed as reduction in [3H]-DA reuptake.
Chain of Sodium-dependent dopamine transporter (Homo sapiens, UniProt Q01959) (Q01959 whole entry): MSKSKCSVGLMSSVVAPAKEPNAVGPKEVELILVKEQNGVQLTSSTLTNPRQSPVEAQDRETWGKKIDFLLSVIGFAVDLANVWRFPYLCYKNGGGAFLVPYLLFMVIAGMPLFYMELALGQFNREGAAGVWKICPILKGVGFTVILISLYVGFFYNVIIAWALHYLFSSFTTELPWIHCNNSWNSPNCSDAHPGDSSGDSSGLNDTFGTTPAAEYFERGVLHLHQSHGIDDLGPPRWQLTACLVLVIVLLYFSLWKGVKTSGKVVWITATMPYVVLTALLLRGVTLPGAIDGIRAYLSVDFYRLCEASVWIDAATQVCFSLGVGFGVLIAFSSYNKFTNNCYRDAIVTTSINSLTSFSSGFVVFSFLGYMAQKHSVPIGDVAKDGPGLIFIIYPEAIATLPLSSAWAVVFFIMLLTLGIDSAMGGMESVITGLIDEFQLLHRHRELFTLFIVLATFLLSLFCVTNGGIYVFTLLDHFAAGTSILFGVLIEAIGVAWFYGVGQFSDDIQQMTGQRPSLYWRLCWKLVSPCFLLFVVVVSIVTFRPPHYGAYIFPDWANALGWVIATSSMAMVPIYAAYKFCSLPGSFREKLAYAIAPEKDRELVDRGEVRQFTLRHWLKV
Assay [3] has as its target Sodium-dependent noradrenaline transporter (Homo sapiens, UniProt P23975). As to the kind of experiment: Inhibition of recombinant human norepinephrine transporter assessed as reduction in [3H]-NA reuptake.
Assay [4] concerns the target Sodium-dependent serotonin transporter (Homo sapiens, UniProt P31645). Description: Inhibition of recombinant human 5-HT transporter expressed in HEK293 cells assessed as reduction in [3H]-5-HT reuptake. In kind it is cell-based.
Assay [5] can be described thus: Inhibition of NAT in Wistar rat synaptosomes assessed as [3H]-NA reuptake by liquid scintillation counting. In kind it is subcellular.
Assay [6] has as its target Sodium-dependent dopamine transporter (Rattus norvegicus, UniProt P23977). As to the kind of experiment: Inhibition of DAT in Wistar rat synaptosomes assessed as [3H]-DA reuptake by liquid scintillation counting. In kind it is subcellular.
Assay [7] concerns the target Sodium-dependent serotonin transporter (Rattus norvegicus, UniProt P31652). Description: Inhibition of 5-HT in Wistar rat synaptosomes assessed as [3H]-5-HT reuptake by liquid scintillation counting. Format: subcellular.
For assay [8], the target named is Voltage-gated inwardly rectifying potassium channel KCNH2 (Homo sapiens, UniProt Q12809). As to the kind of experiment: Inhibition of human ERG channel tail current.
Chain of Voltage-gated inwardly rectifying potassium channel KCNH2 (Q12809 whole entry): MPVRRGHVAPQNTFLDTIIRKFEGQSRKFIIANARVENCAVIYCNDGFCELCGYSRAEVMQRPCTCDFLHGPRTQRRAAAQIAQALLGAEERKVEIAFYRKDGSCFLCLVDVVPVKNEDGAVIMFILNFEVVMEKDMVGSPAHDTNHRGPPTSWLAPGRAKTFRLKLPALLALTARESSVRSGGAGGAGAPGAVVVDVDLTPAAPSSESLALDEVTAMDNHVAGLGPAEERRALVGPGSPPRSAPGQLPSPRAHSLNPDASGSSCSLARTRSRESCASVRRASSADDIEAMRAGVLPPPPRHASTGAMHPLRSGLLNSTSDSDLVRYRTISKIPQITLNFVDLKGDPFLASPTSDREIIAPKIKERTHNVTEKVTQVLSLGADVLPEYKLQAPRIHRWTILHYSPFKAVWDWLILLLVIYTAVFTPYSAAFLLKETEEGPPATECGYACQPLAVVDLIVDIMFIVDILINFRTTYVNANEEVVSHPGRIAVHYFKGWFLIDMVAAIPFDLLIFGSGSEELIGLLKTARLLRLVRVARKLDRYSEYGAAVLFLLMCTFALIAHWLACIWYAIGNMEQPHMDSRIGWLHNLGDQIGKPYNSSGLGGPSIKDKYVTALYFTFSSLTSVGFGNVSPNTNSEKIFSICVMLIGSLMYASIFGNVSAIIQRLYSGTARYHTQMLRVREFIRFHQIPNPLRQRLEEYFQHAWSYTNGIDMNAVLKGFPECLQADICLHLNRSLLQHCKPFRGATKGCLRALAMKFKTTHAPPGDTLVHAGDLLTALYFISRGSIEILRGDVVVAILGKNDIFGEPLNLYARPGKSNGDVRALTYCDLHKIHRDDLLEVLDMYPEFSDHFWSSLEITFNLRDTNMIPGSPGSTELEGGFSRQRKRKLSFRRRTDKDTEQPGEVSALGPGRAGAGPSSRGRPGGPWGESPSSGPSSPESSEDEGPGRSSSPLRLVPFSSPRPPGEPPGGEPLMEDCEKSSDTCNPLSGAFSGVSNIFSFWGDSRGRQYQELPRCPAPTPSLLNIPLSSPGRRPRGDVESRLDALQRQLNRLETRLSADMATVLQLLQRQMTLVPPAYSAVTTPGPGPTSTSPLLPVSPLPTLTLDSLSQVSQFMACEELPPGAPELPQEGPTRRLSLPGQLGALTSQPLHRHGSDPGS
Assay [9] is described as follows: Inhibition of recombinant human sPLA2 after 30 mins microtiter plate assay.

Chain of Sodium-dependent serotonin transporter (Rattus norvegicus, UniProt P31652) (P31652 whole entry): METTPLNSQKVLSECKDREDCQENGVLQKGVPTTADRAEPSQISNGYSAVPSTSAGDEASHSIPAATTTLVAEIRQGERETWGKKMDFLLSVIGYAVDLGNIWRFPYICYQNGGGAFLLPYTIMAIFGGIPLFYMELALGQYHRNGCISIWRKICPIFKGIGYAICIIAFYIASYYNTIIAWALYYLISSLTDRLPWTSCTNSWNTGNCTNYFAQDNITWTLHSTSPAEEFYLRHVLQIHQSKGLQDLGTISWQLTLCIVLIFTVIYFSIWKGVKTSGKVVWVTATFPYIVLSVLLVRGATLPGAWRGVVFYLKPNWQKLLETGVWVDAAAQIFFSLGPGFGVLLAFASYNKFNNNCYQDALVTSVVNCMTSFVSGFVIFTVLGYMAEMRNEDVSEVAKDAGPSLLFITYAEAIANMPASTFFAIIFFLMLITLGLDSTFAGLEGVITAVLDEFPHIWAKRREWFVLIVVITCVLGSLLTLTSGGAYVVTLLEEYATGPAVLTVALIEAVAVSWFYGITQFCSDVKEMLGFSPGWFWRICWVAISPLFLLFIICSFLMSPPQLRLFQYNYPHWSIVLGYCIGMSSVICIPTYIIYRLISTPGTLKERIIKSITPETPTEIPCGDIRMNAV
Chain of Sodium-dependent dopamine transporter (Rattus norvegicus, UniProt P23977) (P23977 whole entry): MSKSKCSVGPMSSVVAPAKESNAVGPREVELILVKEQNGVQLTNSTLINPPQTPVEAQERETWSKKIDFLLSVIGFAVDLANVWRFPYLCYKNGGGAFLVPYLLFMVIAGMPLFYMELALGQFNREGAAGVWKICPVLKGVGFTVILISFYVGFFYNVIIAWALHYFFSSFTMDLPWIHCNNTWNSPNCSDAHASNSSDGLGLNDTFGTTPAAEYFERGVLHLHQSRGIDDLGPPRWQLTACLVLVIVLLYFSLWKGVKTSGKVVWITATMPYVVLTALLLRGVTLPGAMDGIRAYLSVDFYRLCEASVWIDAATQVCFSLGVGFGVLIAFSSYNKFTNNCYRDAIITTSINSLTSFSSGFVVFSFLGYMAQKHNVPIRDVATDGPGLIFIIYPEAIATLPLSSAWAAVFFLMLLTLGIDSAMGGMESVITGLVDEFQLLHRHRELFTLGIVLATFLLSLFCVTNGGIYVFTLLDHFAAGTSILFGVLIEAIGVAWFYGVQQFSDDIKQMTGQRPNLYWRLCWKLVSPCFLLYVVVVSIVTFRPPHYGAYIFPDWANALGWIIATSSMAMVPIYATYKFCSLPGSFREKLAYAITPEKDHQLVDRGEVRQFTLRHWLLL
Chain of Sodium-dependent serotonin transporter (Homo sapiens, UniProt P31645) (P31645 whole entry): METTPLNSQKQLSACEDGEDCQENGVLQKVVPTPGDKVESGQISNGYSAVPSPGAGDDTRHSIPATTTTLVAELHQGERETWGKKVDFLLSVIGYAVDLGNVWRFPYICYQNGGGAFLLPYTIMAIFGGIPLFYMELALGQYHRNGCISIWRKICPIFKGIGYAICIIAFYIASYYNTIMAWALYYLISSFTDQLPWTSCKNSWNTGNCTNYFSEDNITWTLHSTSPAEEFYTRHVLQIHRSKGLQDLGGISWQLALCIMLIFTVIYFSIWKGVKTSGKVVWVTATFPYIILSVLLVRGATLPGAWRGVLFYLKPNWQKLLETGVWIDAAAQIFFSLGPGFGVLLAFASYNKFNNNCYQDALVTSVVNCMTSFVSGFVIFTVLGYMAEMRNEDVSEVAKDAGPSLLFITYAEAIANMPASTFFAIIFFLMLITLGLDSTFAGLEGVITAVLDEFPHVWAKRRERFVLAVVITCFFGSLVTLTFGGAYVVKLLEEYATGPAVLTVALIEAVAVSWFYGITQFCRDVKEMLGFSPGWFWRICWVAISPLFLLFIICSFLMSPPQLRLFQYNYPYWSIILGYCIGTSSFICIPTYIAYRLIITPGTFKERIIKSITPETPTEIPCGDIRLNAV
Chain of Sodium-dependent noradrenaline transporter (P23975 whole entry): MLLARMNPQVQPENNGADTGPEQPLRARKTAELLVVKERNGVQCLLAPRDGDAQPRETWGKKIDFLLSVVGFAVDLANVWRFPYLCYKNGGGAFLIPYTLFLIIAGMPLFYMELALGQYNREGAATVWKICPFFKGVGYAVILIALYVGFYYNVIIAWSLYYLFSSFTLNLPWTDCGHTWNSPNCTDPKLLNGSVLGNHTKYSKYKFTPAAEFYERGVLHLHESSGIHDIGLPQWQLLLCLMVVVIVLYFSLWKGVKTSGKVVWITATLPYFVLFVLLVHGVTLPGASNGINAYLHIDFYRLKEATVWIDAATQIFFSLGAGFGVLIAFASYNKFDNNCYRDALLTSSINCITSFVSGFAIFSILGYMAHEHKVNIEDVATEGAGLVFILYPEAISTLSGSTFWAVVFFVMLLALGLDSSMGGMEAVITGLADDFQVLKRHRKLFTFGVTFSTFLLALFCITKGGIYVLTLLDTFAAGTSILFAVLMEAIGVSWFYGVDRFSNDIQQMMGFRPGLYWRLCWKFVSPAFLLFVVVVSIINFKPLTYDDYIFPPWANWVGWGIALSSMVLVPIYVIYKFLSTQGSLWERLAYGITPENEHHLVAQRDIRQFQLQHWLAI

The IC50 is the midpoint of a concentration-inhibition curve. As for `O=C(O)CC[C@@H](CSc1ccc(Cc2ccccc2)cc1)NC(=O)CCCCCCc1ccccc1`, in [1], the IC50 turned out to be 21 nM.

With `COC(=O)[C@H](CCCCNC(=O)CN(CC(=O)CNc1ccc(OC)cc1)C(=O)C1CCCC(C(=O)N(CC(=O)NCCCC[C@H](NC(=O)OCc2ccccc2)C(=O)OC)CC(=O)NCc2ccc(OC)cc2)C1)NC(=O)OCc1ccccc1` (some centres not stated), the Activity in the assay with UT7 came to 33%.

Take `CC(C)C(C)[C@]1(c2ccc3ccccc3c2)CC[C@](C)(O)CC1` (some centres not stated): the values for the IC50 in assay [2], in assay [3] and in assay [4] were 21 nM, 33 nM and 18 nM, respectively.

On to `CN1C2CCC1CC(Oc1ccc3cc(-c4ccoc4)c(=O)oc3c1)C2` (configuration not stated), for which the results for the IC50 in assay [5], in assay [6] and in assay [7] were 3.8 nM, 70 nM and 2.9 nM, respectively.

For the compound `Cc1ccc(C2CC3CCC(C2)N3C)cc1Br` (configuration not stated), the values for the IC50 in assay [5], in assay [6] and in assay [7] were 15 nM, 13 nM and 1.4 nM, respectively.

Consider `CN1C2CCC1CC(c1ccc3ccccc3c1)C2` (configuration not stated), for which the IC50 in [5] came out at 18 nM; in assay [6], 34 nM; in [7], 0.23 nM.

On to `COc1cc2ccc(OC3CC4CCC(C3)N4C)cc2oc1=O` (configuration not stated), for which the IC50 is 0.48 nM in assay [5], 9.9 nM in assay [6] and 10 nM in assay [7].

For `CN(C)CC1(c2ccc(Cl)c(Cl)c2)CCCC(O)C1` (configuration not stated), in assay [2], the IC50 was 13 nM.

As to `CNC[C@]1(c2ccc3ccccc3c2)CC[C@@](C)(O)CC1`, the IC50 was found to be 40 nM in [2] and 11 nM in assay [4].

`CC1=NN(c2ccc(C)c(C)c2)C(=O)/C1=N\Nc1cccc(-c2cccc(C(=O)O)c2)c1O` [ELTROMBOPAG]: in assay [8], the IC50 was determined as 690 nM.

Take `CCc1c(C(=O)C(N)=O)c2c(OCC(=O)O)cccc2n1Cc1ccccc1` [VARESPLADIB]: the IC50 in assay [9] came out at 9 nM.

These data come from ChEMBL document CHEMBL3769327, “Emerging targets and new small molecule therapies in Parkinson's disease treatment” (Bioorg Med Chem, 2016).
